The record followed here is US20150322094A1, “USE OF SUBSTITUTED 2,3-DIHYDRO-1-BENZOFURAN-4-CARBOXYLIC ACIDS OR SALTS THEREOF AS ACTIVE SUBSTANCES AGAINST ABIOTIC PLANT STRESS” (Bayer CropScience AG, priority 2012, published 2015).

What all share (type): in vivo
Assay [1] concerns TRZAS (Triticum aestivum). In words: Drought stress, spray application, greenhouse pot test. The conditions noted are these: average of one to three independent trials. The protocol:
(§1) Seeds of monocotyledonous and dicotyledonous crop plants were laid out in sandy loam in wood-fiber pots, covered with soil or sand and cultivated in a greenhouse under good growth conditions. The test plants were treated at the early leaf stage (BBCH10-BBCH13). To assure uniform water supply before commencement of stress, the potted plants were supplied with water by dam irrigation prior to substance application. The inventive compounds, formulated in the form of wettable powders (WP), were sprayed onto the green parts of the plants as an aqueous suspension at an equivalent water application rate of 600 l/ha with addition of 0.2% wetting agent (e.g. agrotin). Substance application was followed immediately by stress treatment of the plants. For this purpose, the pots were transferred into plastic inserts in order to prevent them from subsequently drying out too quickly.
(§2) Drought stress was induced by gradual drying out under the following conditions:
(§3) “Day”: 14 hours with illumination at 26° C.
(§4) “Night”: 10 hours without illumination at 18° C.
(§5) The duration of the respective stress phases was guided mainly by the state of the untreated, stressed control plants and thus varied from crop to crop. It was ended (by re-irrigating and transfer to a greenhouse with good growth conditions) as soon as irreversible damage was observed on the untreated, stressed control plants. In the case of dicotyledonous crops, for example oilseed rape and soya, the duration of the drought stress phase varied between 3 and 6 days, in the case of monocotyledonous crops, for example wheat, barley or corn, between 6 and 11 days.
(§6) The end of the stress phase was followed by an approx. 5-7-day recovery phase, during which the plants were once again kept under good growth conditions in a greenhouse.
(§7) In order to rule out any influence of the effects observed by any fungicidal or insecticidal action of the test compounds, it was additionally ensured that the tests proceeded without fungal infection or insect infestation.
(§8) After the recovery phase had ended, the intensities of damage were analysed in visual comparison to untreated, unstressed controls for the same age. The intensity of damage was first recorded as a percentage (100%=plants have died, 0%=like control plants). These values were then used to calculate the efficacy of the test compounds (=percentage reduction in the intensity of damage as a result of substance application) by the following formula: […]
(§9) DVus: damage value of the untreated, stressed control
(§10) DVts: damage value of the plants treated with test compound
(§11) In each trial, 3 pots per crop and dosage were treated and evaluated; the resulting efficacies are thus averages. The values in tables A-1, A-2 and A-3 below are again averages from one to three independent trials.

The next assay concerns BRSNS (Brassica napus). The description is as above. The conditions noted are these: evaluated after recovery phase. The protocol:
as §1, §2, §3, §4, §5, §6, §7, §8, §9, §10, §11

Assay [2] deals with ZEAMX (Zea mays). The description is as above. The conditions noted are these: average of one to three independent trials. As for the experimental part: as §1, §2, §3, §4, §5, §6, §7, §8, §9, §10, §11
Assay [3] has as its system ZEAMX (Zea mays). As to the kind of experiment: Cold stress, spray application, climate-controlled chamber test. The conditions noted are these: averages from one to three independent trials.
Excerpt: (§12) Seeds of monocotyledonous and dicotyledonous crop plants were laid out in sandy loam in plastic pots, covered with soil or sand and cultivated in a greenhouse under good growth conditions until the early leaf stage (BBCH12). The trial plants were then likewise treated at the early leaf stage. To assure uniform water supply before commencement of stress, the potted plants were supplied with water by dam irrigation prior to substance application. The inventive compounds, formulated in the form of wettable powders (WP), were sprayed onto the green parts of the plants as an aqueous suspension at an equivalent water application rate of 300 I/ha with addition of 0.2% wetting agent (e.g. agrotin). Substance application was followed immediately by stress treatment of the plants. For this purpose, the plants in question were transferred into a climate-controlled chamber and, after a wait period of 24 h, subjected to a cold stress profile with the following conditions: • 1) “Morning” warm-up phase from 2 to 16° C. for 5 hours • 2) “Day” at 16° C. for 6 hours • 3) “Evening” cool-down phase from 16 to 2° C. for 7 hours • 4) “Night” at 2° C. for 6 hours
(§13) Over the entire trial period, both the stressed trial plants and the control plants were supplied with the same amount of water which enabled good growth under control conditions. For this purpose, the unstressed control plants which served as a comparison were kept in a greenhouse under good growth conditions and observing the following conditions: • 1) “Day”: 14 hours with illumination at 22° C. • 2) “Night”: 10 hours without illumination at 12° C.
(§14) After a period of two weeks of the cold stress profile, the stress phase was ended, and there followed a recovery phase of about three weeks, during which the plants were once again kept in a greenhouse under good growth conditions. In order to rule out any influence of the effects observed by any fungicidal or insecticidal action of the test compounds, it was additionally ensured that the tests proceeded without fungal infection or insect infestation.
as §8, §9, §10
(§15) In each trial, 8 pots per crop and dosage were treated and evaluated; the resulting efficacies are therefore averages. The values in tables B-1 and B-2 below are again averages from one to three independent trials.

The subject of assay [4] is TRZAS (Triticum aestivum). Described as above. The conditions noted are these: averages from one to three independent trials.
Excerpt: as §12, §13, §14, §8, §9, §10, §15

Turning to `COC(=O)c1c(O)ccc2c1CC(c1cccc(OC)c1)O2` (centres unmarked) [I.1-3], the “EF (TRZAS): efficacy, percentage reduction in the intensity of damage” value in assay [1] (dosage 250 g/ha) is recorded as more than 5%.

`COC(=O)c1c(O)ccc2c1CC(c1ccc(OC)cc1)O2` (centres unmarked) [I.1-4, Methyl 2-(4-methoxyphenyl)-5-hydroxy-2,3-dihydro-1-benzofuran-4-carboxylate]: in the assay with BRSNS (Brassica napus) (dosage 100 g/ha), the “EF (BRSNS): efficacy = percentage reduction in the intensity of damage” value is more than 5%. Further, the “EF (ZEAMX): efficacy, percentage reduction in the intensity of damage” value in the assay on ZEAMX (Zea mays) [2] (dosage 100 g/ha) and in the assay on ZEAMX (Zea mays) [3] (dosage 25 g/ha) was more than 5% each time.

In the case of `COC(=O)c1c(O)ccc2c1CC(c1ccc(OC)c(OC)c1)O2` (centres unmarked) [I.1-12], the “EF (BRSNS): efficacy = percentage reduction in the intensity of damage” value with BRSNS (Brassica napus) (dosage 25 g/ha) is reported as more than 5%. For the same compound, the “EF (TRZAS): efficacy, percentage reduction in the intensity of damage” value in assay [1] (dosage 25 g/ha) is recorded as more than 5%.

Consider `COC(=O)c1c(O)ccc2c1CC(C)(c1ccccc1)O2` (centres unmarked) [I.1-16], for which, in the assay with BRSNS (Brassica napus) (dosage 2.5 g/ha), the “EF (BRSNS): efficacy = percentage reduction in the intensity of damage” value is recorded as more than 5%.

Turning to `COC(=O)c1c(O)ccc2c1C(C)C(c1ccc(OC)cc1)O2` (centres unmarked) [I.1-20], the “EF (BRSNS): efficacy = percentage reduction in the intensity of damage” value in the assay on BRSNS (Brassica napus) (dosage 2.5 g/ha) was more than 5%.

Regarding `COC(=O)c1c(O)ccc2c1C(C)C(c1ccc(OC)c(OC)c1)O2` (centres unmarked) [I.1-21, Methyl 2-(3,4-dimethoxyphenyl)-5-hydroxy-3-methyl-2,3-dihydro-1-benzofuran-4-carboxylate], the “EF (BRSNS): efficacy = percentage reduction in the intensity of damage” value in the assay with BRSNS (Brassica napus) (dosage 25 g/ha) is reported as more than 5%.

In the case of `COC(=O)c1c(O)ccc2c1CC(c1ccc(OC(C)(C)C)cc1)O2` (centres unmarked) [I.1-32], in the assay with BRSNS (Brassica napus) (dosage 25 g/ha), the “EF (BRSNS): efficacy = percentage reduction in the intensity of damage” value is recorded as more than 5%. Besides, the “EF (TRZAS): efficacy, percentage reduction in the intensity of damage” value in assay [1] (dosage 25 g/ha) is on record as more than 5%. Moreover, the “EF (ZEAMX): efficacy, percentage reduction in the intensity of damage” value with ZEAMX (Zea mays) [2] (dosage 25 g/ha) was more than 5%.

For the compound `COC(=O)c1c(O)ccc2c1CC(c1ccc(OCc3ccccc3)c(OC)c1)O2` (centres unmarked) [I.1-35], the “EF (BRSNS): efficacy = percentage reduction in the intensity of damage” value in the assay with BRSNS (Brassica napus) (dosage 25 g/ha) is on record as more than 5%. The “EF (TRZAS): efficacy, percentage reduction in the intensity of damage” value in assay [1] (dosage 25 g/ha) and in assay [4] (dosage 25 g/ha) was more than 5% throughout. For the same compound, the “EF (ZEAMX): efficacy, percentage reduction in the intensity of damage” value with ZEAMX (Zea mays) [2] (dosage 25 g/ha) and with ZEAMX (Zea mays) [3] (dosage 25 g/ha) was more than 5% in each case.

In the case of `COC(=O)c1c(O)ccc2c1CC(c1ccc(OC(C)=O)cc1)O2` (centres unmarked) [I.1-40], the “EF (TRZAS): efficacy, percentage reduction in the intensity of damage” value in assay [1] (dosage 25 g/ha) and in assay [4] (dosage 25 g/ha) was more than 5% in each case. Moreover, the “EF (ZEAMX): efficacy, percentage reduction in the intensity of damage” value in the assay on ZEAMX (Zea mays) [2] (dosage 25 g/ha) and with ZEAMX (Zea mays) [3] (dosage 25 g/ha) was more than 5% each time.

As for `COC(=O)c1c(O)ccc2c1CC(c1ccc(Oc3ccccc3)cc1)O2` (centres unmarked) [I.1-41], the “EF (BRSNS): efficacy = percentage reduction in the intensity of damage” value in the assay with BRSNS (Brassica napus) (dosage 2.5 g/ha) is reported as more than 5%. In addition, the “EF (ZEAMX): efficacy, percentage reduction in the intensity of damage” value in the assay on ZEAMX (Zea mays) [2] (dosage 25 g/ha) and in the assay with ZEAMX (Zea mays) [3] (dosage 6.25 g/ha) was more than 5% in each case. In addition, the “EF (TRZAS): efficacy, percentage reduction in the intensity of damage” value in assay [4] (dosage 6.25 g/ha) was more than 5%.

With `COC(=O)c1c(O)ccc2c1CC(C)(c1ccc(C)cc1)O2` (centres unmarked) [I.1-44], the “EF (BRSNS): efficacy = percentage reduction in the intensity of damage” value in the assay with BRSNS (Brassica napus) (dosage 2.5 g/ha) is more than 5%. The “EF (ZEAMX): efficacy, percentage reduction in the intensity of damage” value in the assay with ZEAMX (Zea mays) [2] (dosage 25 g/ha) is reported as more than 5%.

As to `COC(=O)c1c(O)ccc2c1CC(c1ccc3ccccc3c1)O2` (centres unmarked) [I.1-48], the “EF (BRSNS): efficacy = percentage reduction in the intensity of damage” value with BRSNS (Brassica napus) (dosage 2.5 g/ha) was more than 5%. The “EF (ZEAMX): efficacy, percentage reduction in the intensity of damage” value with ZEAMX (Zea mays) [2] (dosage 250 g/ha) was more than 5%.

For the compound `COC(=O)c1c(O)ccc2c1CC(C)(c1ccc3ccccc3c1)O2` (centres unmarked) [I.1-49], the “EF (BRSNS): efficacy = percentage reduction in the intensity of damage” value in the assay with BRSNS (Brassica napus) (dosage 2.5 g/ha) was more than 5%.

For `COc1ccc(C2Cc3c(ccc(O)c3C(=O)O)O2)cc1` (centres unmarked) [I.2-4], the “EF (BRSNS): efficacy = percentage reduction in the intensity of damage” value in the assay on BRSNS (Brassica napus) (dosage 250 g/ha) is recorded as more than 5%.

On to `CCOC(=O)c1c(O)ccc2c1CC(c1ccc(OC)cc1)O2` (centres unmarked) [I.4-4], for which the “EF (BRSNS): efficacy = percentage reduction in the intensity of damage” value in the assay with BRSNS (Brassica napus) (dosage 2.5 g/ha) was more than 5%. In addition, the “EF (TRZAS): efficacy, percentage reduction in the intensity of damage” value in assay [1] (dosage 25 g/ha) and in assay [4] (dosage 25 g/ha) was more than 5% in each case. In addition, the “EF (ZEAMX): efficacy, percentage reduction in the intensity of damage” value with ZEAMX (Zea mays) [2] (dosage 25 g/ha) and in the assay on ZEAMX (Zea mays) [3] (dosage 6.25 g/ha) was more than 5% each time.

Consider `CCOC(=O)c1c(O)ccc2c1C(C)C(c1ccc(OC)c(OC)c1)O2` (centres unmarked) [I.4-21], for which the “EF (BRSNS): efficacy = percentage reduction in the intensity of damage” value with BRSNS (Brassica napus) (dosage 2.5 g/ha) is more than 5%.

`COC(=O)c1c(OC(C)=O)ccc2c1CC(c1ccc(OC)cc1)O2` (centres unmarked) [I.5-4]: in the assay with BRSNS (Brassica napus) (dosage 2.5 g/ha), the “EF (BRSNS): efficacy = percentage reduction in the intensity of damage” value is more than 5%.

Take `COC(=O)c1c(OC(=O)C2CCC2)ccc2c1CC(c1ccc(OC)cc1)O2` (centres unmarked) [I.6-4, Methyl 5-[(cyclobutylcarbonyl)oxy]-2-(4-methoxyphenyl)-2,3-dihydro-1-benzofuran-4-carboxylate]: the “EF (BRSNS): efficacy = percentage reduction in the intensity of damage” value in the assay on BRSNS (Brassica napus) (dosage 25 g/ha) is more than 5%. In addition, in assay [1] (dosage 25 g/ha), the “EF (TRZAS): efficacy, percentage reduction in the intensity of damage” value is reported as more than 5%.

For `COC(=O)c1c(OS(=O)(=O)C(F)(F)F)ccc2c1CC(c1ccc(OC)cc1)O2` (centres unmarked) [I.16-4], the “EF (ZEAMX): efficacy, percentage reduction in the intensity of damage” value in the assay on ZEAMX (Zea mays) [2] (dosage 25 g/ha) was more than 5%.
